System: not given
Assay: not given
Details: in vivo; cited from earlier work
In the case of POE(2) cetyl ether, the LD50 is listed as 22000 mg/kg.
In the case of POE(2) oleyl ether, the LD50 is given as 25000 mg/kg.
For POE(2) stearyl ether, the LD50 is given as over 25000 mg/kg.
In the case of POE(4) lauryl ether, the LD50 is listed as 9000 mg/kg.
In the case of POE(4) sorbitan monostearate, the LD50 is listed as over 40000 mg/kg.
For POE(5) sorbitan monooleate, the LD50 is given as over 37000 mg/kg.
For POE(23) lauryl ether, the LD50 is listed as 9000 mg/kg.
In the case of Sorbitan monolaurate, the LD50 is listed as 41000 mg/kg.
In the case of Sorbitan monooleate, the LD50 is given as over 40000 mg/kg.
For Sorbitan monopalmitate, the LD50 is given as over 16000 mg/kg.
For Sorbitan monostearate, the LD50 is given as 31000 mg/kg.
In the case of Sorbitan trioleate, the LD50 is listed as over 40000 mg/kg.
For Sorbitan tristearate, the LD50 is given as over 16000 mg/kg.

System: not listed separately
Assay: Oral EPO study in normal male volunteers: plasma EPO levels by radioimmunoassay
Type: in vivo, human
Details: Study Day 1, 10 IU/kg intravenous infusion
Method: (§1) Eight healthy, normal male volunteers participated in this study. After overnight fasting, on Study Day 1 the subjects received medication as follows:
(§2) Blood samples were collected at time 0, 0.5, 1, 2, 3, 4, 6, 10 and 14 hours after the medication; reticulocyte counts (%) were made and plasma EPO levels were measured by radioimmunoassay.
(§3) On Day 2 and Day 3, each subject was given the assigned coded study medications at 08:00 a.m., 14:00 p.m. and 22:00 p.m. and, after an overnight fast, on Study Day 4, each subject was examined again after having been given the study medications as above.
For Erythropoietin [EPO], the “plasma RIA-measured EPO levels” value was “markedly increased”.

System: reticulocyte counts
Assay: Oral EPO study in normal male volunteers: reticulocyte counts
Type: in vivo, human
Details: Study Day 4, 10 IU/Kg intravenous infusion
Method: as §1, §2, §3
For Erythropoietin [EPO], the Reticulocyte counts was “increased”.

Reference: patent US5665700A, “Pharmaceutical formulations” (Skua Investments Limited, priority 1994, dated 1997)
